Source: US20120122860A1, “SOLID FORMS OF SULFONAMIDES AND AMINO ACIDS” (Plexxikon, Inc., priority 2009, published 2012)

Key:
B-Raf = B-Raf (Homo sapiens, UniProt P15056); test: Kinase activity assay, B-Raf; assay type: biochemical; settings: read-out: activity toward kinase B-Raf, IC50
B-Raf V600E = B-Raf V600E (Homo sapiens, UniProt P15056, V600E); test: Kinase activity assay, B-Raf V600E; assay type: biochemical; settings: read-out: activity toward kinase B-Raf V600E, IC50
Fms = Fms (Homo sapiens, UniProt P07333); test: Kinase activity assay, Fms
Kdr = Kdr (Homo sapiens, UniProt P35968); test: Kinase activity assay, Kdr
Chain of Kdr (P35968 20-1356): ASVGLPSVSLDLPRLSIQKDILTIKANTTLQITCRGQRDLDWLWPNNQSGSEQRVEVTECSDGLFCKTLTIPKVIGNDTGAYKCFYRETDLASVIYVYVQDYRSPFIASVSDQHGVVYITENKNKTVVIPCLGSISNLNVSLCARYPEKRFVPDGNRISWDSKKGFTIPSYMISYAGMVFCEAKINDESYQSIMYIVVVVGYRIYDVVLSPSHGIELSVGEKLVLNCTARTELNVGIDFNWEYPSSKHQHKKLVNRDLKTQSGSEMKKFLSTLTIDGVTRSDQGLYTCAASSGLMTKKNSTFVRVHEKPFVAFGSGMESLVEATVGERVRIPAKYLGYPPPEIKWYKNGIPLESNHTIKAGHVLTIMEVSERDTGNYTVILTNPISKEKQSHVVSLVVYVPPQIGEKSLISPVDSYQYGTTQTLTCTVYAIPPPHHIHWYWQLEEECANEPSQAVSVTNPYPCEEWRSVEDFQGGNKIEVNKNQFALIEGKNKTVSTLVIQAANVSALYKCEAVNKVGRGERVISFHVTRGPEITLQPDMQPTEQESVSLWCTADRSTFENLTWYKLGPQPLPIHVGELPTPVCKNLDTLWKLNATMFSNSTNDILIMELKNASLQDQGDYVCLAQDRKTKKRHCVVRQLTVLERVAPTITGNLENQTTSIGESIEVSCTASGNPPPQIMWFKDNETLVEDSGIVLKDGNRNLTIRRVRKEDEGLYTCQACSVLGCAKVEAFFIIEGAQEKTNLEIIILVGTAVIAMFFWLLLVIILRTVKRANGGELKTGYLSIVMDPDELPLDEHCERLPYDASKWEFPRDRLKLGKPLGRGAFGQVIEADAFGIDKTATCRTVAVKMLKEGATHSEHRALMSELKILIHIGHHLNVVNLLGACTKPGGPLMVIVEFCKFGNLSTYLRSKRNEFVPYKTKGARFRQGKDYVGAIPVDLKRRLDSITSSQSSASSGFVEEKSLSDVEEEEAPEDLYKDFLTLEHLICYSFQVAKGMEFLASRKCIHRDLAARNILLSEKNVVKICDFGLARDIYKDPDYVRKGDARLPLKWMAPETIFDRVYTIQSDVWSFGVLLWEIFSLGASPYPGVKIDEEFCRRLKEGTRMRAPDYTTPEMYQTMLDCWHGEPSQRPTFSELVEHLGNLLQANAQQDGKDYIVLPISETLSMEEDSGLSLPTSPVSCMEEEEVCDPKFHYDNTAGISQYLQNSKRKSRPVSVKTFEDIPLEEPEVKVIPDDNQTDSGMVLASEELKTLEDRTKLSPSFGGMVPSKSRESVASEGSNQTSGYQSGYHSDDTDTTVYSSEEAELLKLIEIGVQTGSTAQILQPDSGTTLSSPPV

Kit = Kit (Homo sapiens, UniProt P10721); test: Kinase activity assay, Kit
Chain of Kit (P10721 26-976): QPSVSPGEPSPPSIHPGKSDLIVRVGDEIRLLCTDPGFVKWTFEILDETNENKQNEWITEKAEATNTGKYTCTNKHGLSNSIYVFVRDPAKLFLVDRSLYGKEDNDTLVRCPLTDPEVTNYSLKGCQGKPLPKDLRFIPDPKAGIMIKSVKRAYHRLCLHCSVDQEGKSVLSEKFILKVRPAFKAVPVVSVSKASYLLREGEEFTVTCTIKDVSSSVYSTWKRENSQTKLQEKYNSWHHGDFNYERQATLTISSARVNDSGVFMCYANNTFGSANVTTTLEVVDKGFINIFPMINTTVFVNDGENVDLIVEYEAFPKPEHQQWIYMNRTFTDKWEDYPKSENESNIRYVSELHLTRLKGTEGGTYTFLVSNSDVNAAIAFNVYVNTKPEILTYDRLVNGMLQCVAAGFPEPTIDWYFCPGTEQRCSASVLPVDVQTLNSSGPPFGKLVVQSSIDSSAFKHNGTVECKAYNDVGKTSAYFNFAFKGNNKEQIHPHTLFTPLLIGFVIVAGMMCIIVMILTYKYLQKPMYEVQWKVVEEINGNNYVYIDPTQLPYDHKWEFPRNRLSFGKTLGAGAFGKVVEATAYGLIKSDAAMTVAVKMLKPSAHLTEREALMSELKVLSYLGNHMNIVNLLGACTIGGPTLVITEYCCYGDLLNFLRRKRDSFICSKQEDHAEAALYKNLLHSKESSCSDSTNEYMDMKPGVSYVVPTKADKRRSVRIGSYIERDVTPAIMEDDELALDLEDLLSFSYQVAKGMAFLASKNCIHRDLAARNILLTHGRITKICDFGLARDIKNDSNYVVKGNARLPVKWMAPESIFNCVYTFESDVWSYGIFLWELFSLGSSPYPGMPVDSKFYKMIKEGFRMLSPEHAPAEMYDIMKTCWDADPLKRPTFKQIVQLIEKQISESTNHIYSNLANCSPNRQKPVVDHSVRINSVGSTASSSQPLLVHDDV

Src = Src (Homo sapiens, UniProt P12931); test: Kinase activity assay, Src
Chain of Src (P12931 whole entry): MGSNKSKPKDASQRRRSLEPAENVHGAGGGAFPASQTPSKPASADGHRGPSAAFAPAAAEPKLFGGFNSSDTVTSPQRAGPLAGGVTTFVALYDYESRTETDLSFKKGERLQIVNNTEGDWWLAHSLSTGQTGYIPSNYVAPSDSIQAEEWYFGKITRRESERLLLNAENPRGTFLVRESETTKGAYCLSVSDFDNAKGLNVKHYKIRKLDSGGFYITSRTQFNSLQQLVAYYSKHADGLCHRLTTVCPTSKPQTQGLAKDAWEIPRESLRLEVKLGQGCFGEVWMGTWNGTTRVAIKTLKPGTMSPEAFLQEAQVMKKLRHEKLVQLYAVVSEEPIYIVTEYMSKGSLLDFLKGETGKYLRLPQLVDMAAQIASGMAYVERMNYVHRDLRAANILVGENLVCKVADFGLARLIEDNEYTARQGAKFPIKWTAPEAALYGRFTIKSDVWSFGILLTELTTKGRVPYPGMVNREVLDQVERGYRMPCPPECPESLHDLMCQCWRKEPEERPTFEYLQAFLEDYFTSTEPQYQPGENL

C-Raf = C-Raf (Homo sapiens, UniProt P04049); test: Kinase activity assay, C-Raf
Chain of C-Raf (P04049 whole entry): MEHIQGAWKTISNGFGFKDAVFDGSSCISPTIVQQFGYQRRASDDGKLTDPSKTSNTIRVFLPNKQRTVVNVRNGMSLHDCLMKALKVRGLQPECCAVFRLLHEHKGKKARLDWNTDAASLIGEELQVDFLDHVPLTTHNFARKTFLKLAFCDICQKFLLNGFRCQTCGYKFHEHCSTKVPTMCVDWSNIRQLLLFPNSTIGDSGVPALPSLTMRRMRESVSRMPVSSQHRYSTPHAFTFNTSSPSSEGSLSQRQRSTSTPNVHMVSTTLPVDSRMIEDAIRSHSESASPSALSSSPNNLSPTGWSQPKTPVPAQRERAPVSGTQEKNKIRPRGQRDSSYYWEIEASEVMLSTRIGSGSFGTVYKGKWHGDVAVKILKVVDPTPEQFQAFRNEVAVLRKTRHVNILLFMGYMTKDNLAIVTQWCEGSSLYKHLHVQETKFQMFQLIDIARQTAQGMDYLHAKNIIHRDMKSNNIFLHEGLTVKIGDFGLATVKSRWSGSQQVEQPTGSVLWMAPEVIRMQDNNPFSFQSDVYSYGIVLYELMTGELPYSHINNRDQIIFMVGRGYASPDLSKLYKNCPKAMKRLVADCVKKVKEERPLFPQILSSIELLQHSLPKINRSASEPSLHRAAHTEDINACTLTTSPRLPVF

MAP4K4 = MAP4K4 (Homo sapiens, UniProt O95819); test: Kinase activity assay, MAP4K4

Measured: IC50

Chain of B-Raf (P15056 whole entry): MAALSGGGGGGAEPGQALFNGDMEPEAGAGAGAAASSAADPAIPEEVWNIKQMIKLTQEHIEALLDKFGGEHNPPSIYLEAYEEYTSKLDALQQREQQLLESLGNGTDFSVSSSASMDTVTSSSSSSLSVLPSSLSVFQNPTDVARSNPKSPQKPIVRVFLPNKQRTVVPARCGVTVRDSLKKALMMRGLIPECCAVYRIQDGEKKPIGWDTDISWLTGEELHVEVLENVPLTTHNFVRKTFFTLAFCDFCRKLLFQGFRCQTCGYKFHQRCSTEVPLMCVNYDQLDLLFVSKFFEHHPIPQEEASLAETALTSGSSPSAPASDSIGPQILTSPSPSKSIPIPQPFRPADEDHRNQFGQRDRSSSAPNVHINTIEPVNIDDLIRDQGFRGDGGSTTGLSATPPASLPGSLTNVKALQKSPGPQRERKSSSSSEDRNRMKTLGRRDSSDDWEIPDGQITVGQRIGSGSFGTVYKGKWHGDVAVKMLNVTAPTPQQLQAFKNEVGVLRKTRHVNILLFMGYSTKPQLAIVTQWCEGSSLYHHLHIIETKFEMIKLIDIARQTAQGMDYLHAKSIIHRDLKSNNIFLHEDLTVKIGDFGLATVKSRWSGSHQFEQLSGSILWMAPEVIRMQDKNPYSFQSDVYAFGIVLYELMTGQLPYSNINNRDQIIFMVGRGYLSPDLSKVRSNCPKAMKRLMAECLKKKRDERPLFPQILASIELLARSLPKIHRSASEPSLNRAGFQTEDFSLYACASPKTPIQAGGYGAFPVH
Chain of B-Raf V600E (P15056 whole entry V600E): as the sequence (P15056 whole entry) above, with V600E counted along it

N#Cc1cnc2[nH]cc(C(=O)c3c(F)ccc(NS(=O)(=O)CCC(F)(F)F)c3F)c2c1 [P-2331, 3,3,3-Trifluoro-propane-1-sulfonic acid [3-(5-cyano-1H-pyrrolo[2,3-b]pyridine-3-carbonyl)-2,4-difluoro-phenyl]-amide]
≤ 10 µM: all assays above

O=C(O)CCc1cccc(-c2cnc3[nH]cc(C(=O)c4cccc(NS(=O)(=O)C5CCCC5)c4)c3c2)c1 [P-2466, 3-{3-[3-(3-Cyclopentanesulfonylamino-benzoyl)-1H-pyrrolo[2,3-b]pyridin-5-yl]-phenyl}-propionic acid]
≤ 10 µM: B-Raf V600E | Kdr | Kit | Src | MAP4K4

Cc1cnc2[nH]cc(C(=O)c3c(F)ccc(NS(=O)(=O)c4ccc(F)cc4F)c3F)c2c1 [P-2025, N-[2,4-Difluoro-3-(5-methyl-1H-pyrrolo[2,3-b]pyridine-3-carbonyl)-phenyl]-2,4-difluoro-benzenesulfonamide]
not listed: Fms
≤ 10 µM: all other assays above

CCCS(=O)(=O)Nc1ccc(F)c(C(=O)c2c[nH]c3ncc(-c4cnc(C)nc4)cc23)c1F [P-2211, Propane-1-sulfonic acid {2,4-difluoro-3-[5-(2-methyl-pyrimidin-5-yl)-1H-pyrrolo[2,3-b]pyridine-3-carbonyl]-phenyl}-amide]
not listed: Kit
≤ 10 µM: all other assays above

O=C(c1c(F)ccc(NS(=O)(=O)c2ccc(F)cc2F)c1F)c1c[nH]c2nccc(Cl)c12 [P-2034, N-[3-(4-Chloro-1H-pyrrolo[2,3-b]pyridine-3-carbonyl)-2,4-difluoro-phenyl]-2,4-difluoro-benzenesulfonamide]
not listed: Fms
≤ 10 µM: all other assays above

O=C(c1c(F)ccc(NS(=O)(=O)c2ccc(F)cc2)c1F)c1c[nH]c2nccc(Cl)c12 [P-2026, N-[3-(4-Chloro-1H-pyrrolo[2,3-b]pyridine-3-carbonyl)-2,4-difluoro-phenyl]-4-fluoro-benzenesulfonamide]
not listed: Fms
≤ 10 µM: all other assays above

Cc1cnc2[nH]cc(C(=O)c3cccc(NS(=O)(=O)C4CCCCC4)c3)c2c1 [P-2458, Cyclohexanesulfonic acid [3-(5-methyl-1H-pyrrolo[2,3-b]pyridine-3-carbonyl)-phenyl]-amide]
≤ 10 µM: Fms | Kdr | Kit | MAP4K4

O=C(c1cccc(NS(=O)(=O)c2cccnc2)c1)c1c[nH]c2ncc(F)cc12 [P-2143, Pyridine-3-sulfonic acid [3-(5-fluoro-1H-pyrrolo[2,3-b]pyridine-3-carbonyl)-phenyl]-amide]
≤ 10 µM: Fms | Kdr | C-Raf | MAP4K4

CCCS(=O)(=O)Nc1ccc(F)c(C(=O)c2c[nH]c3ncc(-c4ccc(S(=O)(=O)C(C)C)cc4)cc23)c1F [P-2223, Propane-1-sulfonic acid (2,4-difluoro-3-{5-[4-(propane-2-sulfonyl)-phenyl]-1H-pyrrolo[2,3-b]pyridine-3-carbonyl}-phenyl)-amide]
not listed: Fms
≤ 10 µM: all other assays above

CCCS(=O)(=O)Nc1ccc(F)c(C(=O)c2c[nH]c3ncc(-c4cccc(S(C)(=O)=O)c4)cc23)c1F [P-2228, Propane-1-sulfonic acid {2,4-difluoro-3-[5-(3-methanesulfonyl-phenyl)-1H-pyrrolo[2,3-b]pyridine-3-carbonyl]-phenyl}-amide]
≤ 10 µM: all assays above

Cc1cnc2[nH]cc(C(=O)c3cccc(NS(=O)(=O)c4cccnc4)c3)c2c1 [P-2141, Pyridine-3-sulfonic acid [3-(5-methyl-1H-pyrrolo[2,3-b]pyridine-3-carbonyl)-phenyl]-amide]
≤ 10 µM: Fms | Kdr | Kit | MAP4K4

O=C(c1c(F)ccc(NS(=O)(=O)c2c(F)cccc2F)c1F)c1c[nH]c2nccc(Cl)c12 [P-2033, N-[3-(4-Chloro-1H-pyrrolo[2,3-b]pyridine-3-carbonyl)-2,4-difluoro-phenyl]-2,6-difluoro-benzenesulfonamide]
not listed: Fms
≤ 10 µM: all other assays above

O=C(c1cccc(NS(=O)(=O)C2CCCCC2)c1)c1c[nH]c2ncc(Cl)cc12 [P-2452, Cyclohexanesulfonic acid [3-(5-chloro-1H-pyrrolo[2,3-b]pyridine-3-carbonyl)-phenyl]-amide]
≤ 10 µM: B-Raf V600E | Fms | Kdr | Kit | MAP4K4

O=C(CCCCC1SCC2NC(=O)NC21)NCCCCCNC(=O)CCc1cnc2[nH]cc(C(=O)c3c(F)ccc(NS(=O)(=O)c4ccc(C(F)(F)F)cc4)c3F)c2c1 (stereo not shown) [P-2008, 5-(2-Oxo-hexahydro-thieno[3,4-d]imidazol-6-yl)-pentanoic acid [5-(3-{3-[2,6-difluoro-3-(4-trifluoromethyl-benzenesulfonylamino)-benzoyl]-1H-pyrrolo[2,3-b]pyridin-5-yl}-propionylamino)-pentyl]-amide]
not listed: Src
≤ 10 µM: all other assays above

O=C(O)CCc1cccc(-c2cnc3[nH]cc(C(=O)c4cccc(NS(=O)(=O)C5CCCCC5)c4)c3c2)c1 [P-2465, 3-{3-[3-(3-Cyclohexanesulfonylamino-benzoyl)-1H-pyrrolo[2,3-b]pyridin-5-yl]-phenyl}-propionic acid]
not listed: C-Raf
≤ 10 µM: all other assays above

CCCCS(=O)(=O)Nc1ccc(F)c(C(=O)c2c[nH]c3ncc(-c4ccc(Cl)cc4)cc23)c1F [P-2300, Butane-1-sulfonic acid {3-[5-(4-chloro-phenyl)-1H-pyrrolo[2,3-b]pyridine-3-carbonyl]-2,4-difluoro-phenyl}-amide]
≤ 10 µM: Fms | Kdr | Kit | Src | MAP4K4

O=C(O)CCc1cccc(-c2cnc3[nH]cc(C(=O)c4cccc(NS(=O)(=O)c5cccnc5)c4)c3c2)c1 [P-2148, 3-(3-{3-[3-(Pyridine-3-sulfonylamino)-benzoyl]-1H-pyrrolo[2,3-b]pyridin-5-yl}-phenyl)-propionic acid]
not listed: B-Raf V600E | C-Raf
≤ 10 µM: all other assays above

Cc1cnc2[nH]cc(C(=O)c3c(F)ccc(NS(=O)(=O)C4CCCCC4)c3F)c2c1 [P-2360, Cyclohexanesulfonic acid [2,4-difluoro-3-(5-methyl-1H-pyrrolo[2,3-b]pyridine-3-carbonyl)-phenyl]-amide]
not listed: Fms
≤ 10 µM: all other assays above

Cc1cnc2[nH]cc(C(=O)c3cc(NS(=O)(=O)c4cccnc4)ccc3F)c2c1 [P-2137, Pyridine-3-sulfonic acid [4-fluoro-3-(5-methyl-1H-pyrrolo[2,3-b]pyridine-3-carbonyl)-phenyl]-amide]
≤ 10 µM: Fms | Kdr | Src | MAP4K4

CCCS(=O)(=O)Nc1ccc(F)c(C(=O)c2c[nH]c3ncc(-c4nn[nH]n4)cc23)c1F [P-2242, Propane-1-sulfonic acid {2,4-difluoro-3-[5-(2H-tetrazol-5-yl)-1H-pyrrolo[2,3-b]pyridine-3-carbonyl]-phenyl}-amide]
≤ 10 µM: Fms | Kdr | Kit | Src | MAP4K4

CCCS(=O)(=O)Nc1ccc(F)c(C(=O)c2c[nH]c3ncc(-c4ccc(S(=O)(=O)NCCO)cc4)cc23)c1F [P-2221, 4-{3-[2,6-Difluoro-3-(propane-1-sulfonylamino)-benzoyl]-1H-pyrrolo[2,3-b]pyridin-5-yl}-N-(2-hydroxy-ethyl)-benzenesulfonamide]
≤ 10 µM: Fms | Kdr | Kit | MAP4K4

O=C(c1cccc(NS(=O)(=O)C2CCCC2)c1)c1c[nH]c2ncc(Cl)cc12 [P-2453, Cyclopentanesulfonic acid [3-(5-chloro-1H-pyrrolo[2,3-b]pyridine-3-carbonyl)-phenyl]-amide]
≤ 10 µM: B-Raf V600E | Fms | Kdr | Kit | MAP4K4
